Data from patent US6080859A, “Pyrroloindole derivatives and intermediates in producing the same” (priority 1997, dated 2000).
Counter-ions that a name gives are not always drawn. Like-named read-outs stand apart in the source and are kept apart here.

How the values were obtained:
[1] = Decomposition reaction under chemical conditions (half life in buffer solution of pH 7.4, HPLC); type: physicochemical; details: ph 7.4 buffer/dma, pH 7.4 buffer / N,N-dimethylacetamide 50 v/v%, 37° C.
Procedure: Decomposition reaction under chemical conditions:
A buffer solution of pH 7.4 was prepared by mixing suitably an aqueous 0.1 M citric acid solution and an aqueous 0.2 M disodium hydrogenphosphate solution. The buffer solution was diluted tenfold with water. This buffer solution was further dissolved in N,N-dimethylacetamide at a concentration of 50 v/v%, and its pH was adjusted to 7.4 by adding suitable amount of aqueous 0.1 M citric acid solution to prepare a buffer solution. The test compounds were dissolved respectively in the buffer solution at a concentration of 5 μM to prepare the test sample solutions. The test sample solutions were placed respectively in a glass vial, and the glass vials were kept at 37° C. in a thermostat. The change of the concentration of remaining test compounds with lapse of time was determined quantitatively intermittently by high performance liquid chromatography (HPLC) to measure the half life (t1/2 : hours).

[2] = test system: M5076/ADR cells (adriamycin-resistant strain); test: Evaluation with mouse bearing M5076/ADR cells (adriamycin-resistant strain) transplanted subcutaneously; type: in vivo, mouse (female, BDFI strain); details: 1.0 mg/kg, single injection into tail vein nine days after transplantation; tumor weighed 13 days after injection
Procedure: Evaluation with mouse bearing M5076/ADR cells (adriamycin-resistant strain) transplanted subcutaneously:
M5076/ADR cells (adriamycin-resistant strain) were transplanted subcutaneously at the axillary region of female mice (BDFI strain, 8 week age) in an amount of 3.0×10^6 cells for an individual mouse. Nine days after the transplantation, the test compound solution was injected once into the tail vein. After 13 days from the injection, the tumor was excised and weighed. The antitumor activity was evaluated by the ratio (T/C) of the average tumor weight (T) of the administrated group to the average tumor weight (C) of control group to which solvent was administrated.

[3] = * Average of the half lives of the diastereomers, read-out: Half life (t1/2), average of the half lives of the diastereomers (converted)
[4] = read-out: Half life (t1/2) (converted)

Row | Compound | half-life at 5 µM [1, 3] [min] | T/C (ratio of average tumor weight of administrated group to control group) [2] | half-life at 5 µM [1, 4] [min]
1 | COC(=O)c1c(C(F)(F)F)[nH]c2c(OC(=O)N3CCCCC3CO)cc3c(c12)[C@H](CCl)CN3C(=O)c1cc2cc(NC(=O)c3cc4cccc(OC)c4o3)ccc2[nH]1 (mixture of isomers) [Example 4, methyl (1S)-chloromethyl-5-{[(2RS)-hydroxymethylpiperidin-1-ylcarbonyl]oxy}-3-[5-(7-methoxybenzofuran-2-ylcarbonyl)amino-1H-indol-2-ylcarbonyl]-7-trifluoromethyl-1,2,3,6-tetrahydropyrrolo[3,2-e]indole-8-carboxylate] | > 480 | 0.01 | –
2 | COC(=O)c1c(C(F)(F)F)[nH]c2c(OC(=O)N3CCOCC3CO)cc3c(c12)[C@H](CCl)CN3C(=O)c1cc2cc(NC(=O)c3cc4cccc(OC)c4o3)ccc2[nH]1 (mixture of isomers) [Example 7, methyl (1S)-chloromethyl-5-{[(3RS)-hydroxymethylmorpholin-4-ylcarbonyl]oxy}-3-[5-(7-methoxybenzofuran-2-ylcarbonyl)amino-1H-indol-2-ylcarbonyl]-7-trifluoromethyl-1,2,3,6-tetrahydropyrrolo[3,2-e]indole-8-carboxylate] | 102 | – | –
3 | COC(=O)c1c(C(F)(F)F)[nH]c2c(OC(=O)N3CCC[C@H]3CN3CCCC3)cc3c(c12)[C@H](CCl)CN3C(=O)c1cc2cc(NC(=O)c3cc4cccc(OC)c4o3)ccc2[nH]1 [Example 3, methyl (1S)-chloromethyl-5-{[(2S)-(pyrrolidin-l-ylmethyl)pyrrolidin-1-ylcarbonyl]oxy}-3-[5-(7-methoxybenzofuran-2-ylcarbonyl)amino-1H-indol-2-ylcarbonyl]-7-trifluoromethyl-1,2,3,6-tetrahydropyrrolo[3,2-e]indole-8-carboxylate] | – | – | 60
4 | COC(=O)c1c(C(F)(F)F)[nH]c2c(OC(=O)N3CCN(C)CC3CO)cc3c(c12)[C@H](CCl)CN3C(=O)c1cc2cc(NC(=O)c3cc4cccc(OC)c4o3)ccc2[nH]1 (stereo partly drawn) [Example 5, hydrochloride of methyl (1S)-chloromethyl-5-{[(2RS)-hydroxymethyl-4-methylpiperazin-1-ylcarbonyl]oxy}-3-[5-(7-methoxybenzofuran-2-ylcarbonyl)amino-1H-indol-2-ylcarbonyl]-7-trifluoromethyl-1,2,3,6-tetrahydropyrrolo[3,2-e]indole-8-carboxylate] | 102 | 0.01 | –
5 | COC(=O)c1c(C(F)(F)F)[nH]c2c(OC(=O)N3CCC[C@H]3CO)cc3c(c12)[C@H](CCl)CN3C(=O)c1cc2cc(NC(=O)c3cc4cccc(OC)c4o3)ccc2[nH]1 [Example 1, methyl (1S)-chloromethyl-5-{[(2S)-hydroxymethylpyrrolidin-1-ylcarbonyl]oxy}-3-[5-(7-methoxybenzofuran-2-ylcarbonyl)amino-1H-indol-2-ylcarbonyl]-7-trifluoromethyl-1,2,3,6-tetrahydropyrrolo[3,2-e]indole-8-carboxylate] | – | – | > 480
6 | COC(=O)c1c(C(F)(F)F)[nH]c2c(OC(=O)N3CCN(C)CC3CCO)cc3c(c12)[C@H](CCl)CN3C(=O)c1cc2cc(NC(=O)c3cc4cccc(OC)c4o3)ccc2[nH]1 (stereo partly drawn) [Example 6, hydrochloride of methyl (1S)-chloromethyl-5-{[(2RS)-hydroxyethyl-4-methylpiperazin-1-ylcarbonyl]oxy}-3-[5-(7-methoxybenzofuran-2-ylcarbonyl)amino-1H-indol-2-ylcarbonyl]-7-trifluoromethyl-1,2,3,6-tetrahydropyrrolo[3,2-e]indole-8-carboxylate] | 348 | 0.02 | –
7 | COC(=O)c1c(C(F)(F)F)[nH]c2c(OC(=O)N3C[C@H](O)C[C@H]3CO)cc3c(c12)[C@H](CCl)CN3C(=O)c1cc2cc(NC(=O)c3cc4cccc(OC)c4o3)ccc2[nH]1 [Example 2, methyl (1S) -chloromethyl-5-{[(4R)-hydroxy-(2S)-hydroxymethylpyrrolidin-1-ylcarbonyl]oxy}-3-[5-(7-methoxybenzofuran-2-ylcarbonyl)amino-1H-indol-2-ylcarbonyl]-7-trifluoromethyl-1,2,3,6-tetrahydropyrrolo[3,2-e]indole-8-carboxylate] | – | – | > 480
